Here are results for 5 compounds from PMC10394814, “Discovery and evaluation of active compounds from Xuanfei Baidu formula against COVID-19 via SARS-CoV-2 M^pro” (Chinese Medicine, 2023).

Like-named read-outs stand apart in the source and are kept apart here.

One may read the inhibition as the percentage by which the read-out fell short of the control. A word on the IC50: it is the midpoint of a concentration-inhibition curve. For orientation: Kd means the equilibrium constant for the complex coming apart. As a reminder, the CC50 is the concentration at which the toxic effect on the cells reaches its halfway point.

Data set [1] has as its target T1, SARS-CoV-2 M^pro (Severe acute respiratory syndrome coronavirus 2, UniProt P0DTD1). Put plainly: FRET screening of SARS-CoV-2 M^pro inhibitors. Type of data set: biochemical. The following applies: for inhibition at 40 µM: read-out: inhibition rate; for IC50: n = 5. As for the experimental part:
FRET screening was carried out for identifying the inhibitors of SARS-CoV-2 M^pro. […] The screening system was established by employing M^pro (200 nM), substrate (20 µM), and the tested compounds with the different concentrations from 0.039 to 160 µM. The excitation and emission wavelength were set at 320 and 405 nm, separately. The data was analyzed with Graphpad prism 9.0 and all experiments were performed in triplicates.

In data set [2] the target is T1, SARS-CoV-2 M^pro. The data set can be described thus: SPR binding affinity to M^pro (Biacore T200, CM5 chip). The following applies: for kon / koff: kinetic mode; for kon: read-out: Ka (association rate constant); for koff: read-out: Kd (dissociation rate constant). How it is done:
SPR assay. Biacore T200 system was used for SPR assay. M^pro was conjugated to a sensor Chip (CM5) via amino coupling reaction. The tested compounds were diluted with the running buffer (1.05 × PBS-P, 5% DMSO) to reach the working concentration of 0.977–500 µM, being injected into the channels at a flow rate of 30 µL/min. The coupling time and the dissociation time were respectively set at 60 s and 120 s or 180 s. The data were analyzed for fitting the equilibrium dissociation constant (KD).
For orientation: Surface plasmon resonance follows binding to a sensor surface in real time, without labels.

In data set [3] the target is T1, SARS-CoV-2 M^pro. Put plainly: ITC measurement of binding to M^pro. The following applies: ITC at 298 K. (In general: In ITC the heat of successive injections is recorded.)
A short description of the next data set: in vitro. Type of data set: cell-based. The following applies: African green monkey. As for the experimental part:
Vero E6 (ATCC, CRL-1586) cells (1 × 10^4 cells/well) were maintained in a 96-well plate for 12 h. All cells were cultured in complete medium composed of Dulbecco’s Modified Eagle Medium (DMEM) (Gibco, USA), 10% (v/v) serum, 100 U/mL penicillin, and 100 µg/mL streptomycin. The diluted solutions of the tested compounds (200 µL) at the concentrations of 100, 80, 60, 40, 20, 10, and 5 µM were added to wells and incubated for another 24 or 48 h, respectively. At the terminus period of incubation, 50 µL MTT (2.5 mg/mL) was added to each well and continuously incubated at 37 ℃ for 4 h. After disposal of the liquid supernatant, 150 µL DMSO was added to each well, whose absorbance was detected at 490 nm via Microplate Reader (TECAN SunriseTM, China). Cytotoxicity was calculated as follows: Cell viability (%) = (ODexperiment-ODBlank)/(ODcontrol-ODBlank) × 100%. The data were analyzed with GraphPad Prism 9.0. All experiments were performed in triplicates.

The next data set relates to mice. The following applies: cited from earlier work.
[4] abbreviates: kinetic mode (physcion: affinity mode).

For the compound `COc1c(/C=C/C(=O)c2ccc(O)cc2)ccc(O)c1O` [Licochalcone B], the inhibition at 40 µM on SARS-CoV-2 M^pro [1] is more than 90%. The values for the IC50 on SARS-CoV-2 M^pro [1] (with 0.01% Triton X-100) and against SARS-CoV-2 M^pro [1] (without Triton X-100) were 5.12 ± 1.53 µM and 4.24 ± 1.03 µM, respectively. In addition, the Kd at SARS-CoV-2 M^pro [2] (setting [4]) is 5.64 µM. Moreover, on SARS-CoV-2 M^pro [2], the kon stood at 2210 M⁻¹ s⁻¹. In addition, the koff on SARS-CoV-2 M^pro [2] amounted to 0.0125 s⁻¹.

For `C[C@@H]1O[C@@H](O[C@@H]2[C@@H](O)[C@H](OCCc3ccc(O)c(O)c3)O[C@H](CO)[C@H]2OC(=O)/C=C/c2ccc(O)c(O)c2)[C@H](O)[C@H](O)[C@H]1O` [Acteoside], on SARS-CoV-2 M^pro [1], the inhibition at 40 µM is more than 90%. Inhibition at SARS-CoV-2 M^pro [1] (with 0.01% Triton X-100) was half-maximal at 1.93 ± 0.76 µM (IC50). Moreover, the concentration for half-maximal inhibition (IC50) against SARS-CoV-2 M^pro [1] (without Triton X-100) worked out at 2.53 ± 1.02 µM. This compound also returned a Kd at SARS-CoV-2 M^pro [2] (setting [4]) of 4.67 µM. On SARS-CoV-2 M^pro [2], the kon amounted to 847 M⁻¹ s⁻¹ and the koff was 0.00396 s⁻¹. Moreover, on SARS-CoV-2 M^pro [3], the “N (binding stoichiometry)” value was 0.48 and the “ΔS (entropy variation)” value turned out to be 27.3 cal/mol/deg. The CC50 in “in vitro” was more than 100 µM. For the same compound, the safe dose entry in the data set with mice is listed as “up to 800 mg/kg”.

For `CCCCC/C=C\C/C=C\CCCCCCCC(=O)O` [Linoleic acid, Linoleic Acid], the inhibition at 40 µM at SARS-CoV-2 M^pro [1] is more than 90%. At SARS-CoV-2 M^pro [1] (with 0.01% Triton X-100), this compound showed an IC50 of 43 ± 1.93 µM. In addition, the equilibrium dissociation constant (Kd) at SARS-CoV-2 M^pro [2] amounted to 10.8 µM.

Turning to `COc1cc(O)c2c(c1)C(=O)c1cc(C)cc(O)c1C2=O` [Physcion], the inhibition at 40 µM at SARS-CoV-2 M^pro [1] is more than 90%. The values for the IC50 on SARS-CoV-2 M^pro [1] (with 0.01% Triton X-100) and against SARS-CoV-2 M^pro [1] (without Triton X-100) were 31.6 ± 25.6 µM and 22.1 ± 3.01 µM, respectively. The Kd at SARS-CoV-2 M^pro [2] amounted to 167 µM.

For the compound `COc1c(/C=C/C(=O)c2ccc(O)c(CC=C(C)C)c2)ccc(O)c1O` [Licochalcone D], the inhibition at 40 µM on SARS-CoV-2 M^pro [1] was more than 90%. The compound also returned an IC50 against SARS-CoV-2 M^pro [1] (with 0.01% Triton X-100) of 29.5 µM. For the same compound, the half-maximal inhibitory concentration (IC50) against SARS-CoV-2 M^pro [1] (without Triton X-100) was found to be 5.54 µM. Further, the Kd on SARS-CoV-2 M^pro [2] (setting [4]) is 4.87 µM. At SARS-CoV-2 M^pro [2], the kon turned out to be 2810 M⁻¹ s⁻¹ and the koff is 0.0137 s⁻¹.
